Like-named read-outs stand apart in the source and are kept apart here.
Assays:
[1] = system: Bst 2.0 DNA polymerase; assay: Homopolymer assays of nucleotide analogs (Example 10); format: biochemical; details: Natural Nucleotide T (TTP = 1); template oligo 332, primer 221L
Method: A homopolymer assay was performed to investigate the effectiveness of E-dCTP and P-dUTP as nucleotide analogs of dCTP. 50 μl solutions containing a template nucleic acid molecule and primer and Bst 2.0 DNA polymerase are placed in a microplate reader and the fluorescence of the solution is measured in kinetic mode. A fluorescein attached to an oligonucleotide (indicated with a * in FIG. 7) was quenched in the substrate due to the proximity of complementary G bases. Addition of dCTP and/or dCTP analogs causes extension of the 3′ end of the primer, formation of double-stranded DNA, and unquenching of the fluorescein. The fluorescence increases with the addition of multiple nucleotides.
Additional homopolymer assays were performed according to the procedure outlined in Example 8 using different nucleotides and nucleotide analogs.
To test for dUTP or TTP incorporation, oligo 332 was used as a template and oligo 221L was used as a primer. To test for dCTP incorporation, oligo 333 was used as a template and oligo 221L was used as a primer. To test for dGTP incorporation, oligo 334 was used as a template and oligo 221L was used as a primer. To test for dATP incorporation, hairpin oligo 221 was used as both a primer and template.

[2] = target: T1, Bst DNA polymerase (Geobacillus stearothermophilus, UniProt P52026); assay: Stepwise sequencing with TTP and E-dUTP, context metric (Example 8); format: biochemical; details: 0.05 fraction of dUTP*
T1 sequence (P52026 1-876): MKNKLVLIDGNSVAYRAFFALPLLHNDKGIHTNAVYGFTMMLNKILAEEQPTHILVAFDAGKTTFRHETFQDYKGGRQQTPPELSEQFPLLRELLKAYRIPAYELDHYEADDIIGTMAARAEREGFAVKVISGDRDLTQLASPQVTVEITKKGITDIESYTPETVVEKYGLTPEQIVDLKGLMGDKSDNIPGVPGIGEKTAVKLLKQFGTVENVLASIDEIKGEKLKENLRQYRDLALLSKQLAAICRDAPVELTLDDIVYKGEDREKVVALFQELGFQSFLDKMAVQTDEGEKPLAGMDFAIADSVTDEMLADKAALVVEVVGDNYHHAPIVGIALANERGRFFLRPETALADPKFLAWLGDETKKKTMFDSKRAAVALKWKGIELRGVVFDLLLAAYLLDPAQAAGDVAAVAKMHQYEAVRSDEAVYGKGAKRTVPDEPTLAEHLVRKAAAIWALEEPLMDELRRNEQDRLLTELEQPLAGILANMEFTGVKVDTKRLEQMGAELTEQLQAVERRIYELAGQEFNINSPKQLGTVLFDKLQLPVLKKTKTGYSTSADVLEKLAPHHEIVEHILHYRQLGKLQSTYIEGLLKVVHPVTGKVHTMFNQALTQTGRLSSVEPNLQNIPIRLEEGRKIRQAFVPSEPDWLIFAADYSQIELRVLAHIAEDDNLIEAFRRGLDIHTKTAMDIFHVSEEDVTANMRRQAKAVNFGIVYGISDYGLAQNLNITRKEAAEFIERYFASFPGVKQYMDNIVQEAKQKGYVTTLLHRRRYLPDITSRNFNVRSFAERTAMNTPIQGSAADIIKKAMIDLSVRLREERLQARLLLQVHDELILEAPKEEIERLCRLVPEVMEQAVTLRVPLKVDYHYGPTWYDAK
Excerpt: A microscope slide surface was modified with polyaminosilane to allow the attachment of 1 micron beads each containing one of three different oligonucleotide templates. To each template was bound an oligonucleotide primer and Bst DNA polymerase. Solutions of mixtures of labeled and unlabeled nucleotide, of one type at a time, were exposed to the surface, followed by a wash solution. The fluorescence of labeled beads was detected and quantitated. The fluorescence label was cleaved by treatment with tris(hydroxypropyl)phosphine (THP) after each step.
Context was measured for each experiment. Context is given by the context metric, C, which is defined as the (maximum-minimum signal)/average signal.

[3] = system: DNA polymerase; details: for peak height (red fluorescence on the gel): dUTP* only (Fr = 1.0) or dUTP*/named dUTP^0
Method: A gel assay was also performed to examine context-dependent incorporation. […] The primers had different lengths poly-T tails to enable separation on a polyacrylamide gel. […] Excess nucleotides and nucleotide analogs were washed away and the sample was loaded onto a gel.
The red fluorescence on the gel was analyzed with ImageJ. The peak heights for the extension reactions for each primer with Fr=1.0 was measured. […] The ratios of the peak heights for each pair were calculated (“norm.”). […] The metric in this experiment was context, as defined as: C=(Maximum signal−minimum signal)/(average signal).

[4] = system: hairpin oligo; assay: Kinetic assay using hairpin oligos (Example 7); format: biochemical
Method: A kinetic assay using hairpin oligos was also performed to determine the rate of incorporate of an unnatural nucleotide and a natural nucleotide following the unnatural nucleotide. […] Incorporation of a T or U analog unquenched a fluorescein in the hairpin oligo. Following incorporation of the T or U analog, a mixture of C and A was added, which further unquenched the dye.

## Cc1cn([C@H]2C[C@H](O)[C@@H](COP(=O)(O)OP(=O)(O)OP(=O)(O)O)O2)c(=O)[nH]c1=O [TTP, thymidine triphosphate, reference compound]
[1]
  Relative Rate in Homopolymer Assay: 1
[2]; Oligonucleotide template 1
  C (context metric): 0.86
[2]; Oligonucleotide template 2
  C (context metric): 0.73
[2]; Oligonucleotide template 3
  C (context metric): 0.71
[3]; Peak 1
  Norm. (ratio of peak height dUTP*/dUTP^0 to Fr=1.0): 1.1
[3]; Peak 1 (primer)
  peak height (red fluorescence on the gel): 48
[3]; Peak 2
  Norm. (ratio of peak height dUTP*/dUTP^0 to Fr=1.0): 1.4
[3]; Peak 2 (primer)
  peak height (red fluorescence on the gel): 56
[3]; Peak 3
  Norm. (ratio of peak height dUTP*/dUTP^0 to Fr=1.0): 1.0
[3]; Peak 3 (primer)
  peak height (red fluorescence on the gel): 25
[3]; Peak 4
  Norm. (ratio of peak height dUTP*/dUTP^0 to Fr=1.0): 1.2
[3]; Peak 4 (primer)
  peak height (red fluorescence on the gel): 38
[3]; Peak 5
  Norm. (ratio of peak height dUTP*/dUTP^0 to Fr=1.0): 1.7
[3]; Peak 5 (primer)
  peak height (red fluorescence on the gel): 38
[3]; five primers, gel assay with dUTP*
  context C=(Maximum signal−minimum signal)/(average signal): 0.54
[4]; mixture of C and A added after T or U analog
  incorporation of dCTP and dATP after the dUTP analog: rapid
[4]; unquenching of fluorescein in hairpin oligo
  initial incorporation of dUTP analog: rapid
